Test results: patent US8637050B2, “Peptide vaccines against group A streptococci” (The United States of America, as represented by the …, priority 2001, dated 2014)
No end group written: not given here.

Tests used:
[1] = system: rabbit sera prepared against whole M protein; test: ELISA: peptide recognition by anti-M protein rabbit sera; assay type: binding
Description: Overlapping peptides representing each M type were assessed for their immunogenicity using ELISA and dot-immunoblot.
(§1) Levels of anti-M protein antibodies in mouse sera were determined by an enzyme-linked immunosorbent assay (ELISA) using either synthetic peptides or whole M protein as antigen. Microtiter plates (DYNEX Immulon 2 HB) were coated with 10 μg/ml antigen in 10 mM phosphate-buffered saline (PBS) at 4° C. overnight. Plates were rinsed three times with wash buffer (0.05% Tween 20 in 10 mM PBS, pH 7.2) and blocked with 1% BSA in PBS for one hour at 37° C. The appropriate test sera were applied at a starting dilution of 1:1000 and serially diluted two fold down the plate in PBS. Plates were incubated at 37° C. for 30 minutes and subsequently rinsed three times. Goat anti-rabbit or goat anti-mouse Ig-peroxidase conjugate diluted 1:10,000 in PBS was added to all wells and incubated for two hours at 37° C. Plates were rinsed three times with wash buffer and freshly prepared TMB peroxidase (Kirkegaard and Perry Laboratories) was added. Reactions were quenched with 0.18 M H2SO4 after 30 minutes at room temperature and OD450 was measured with a Labsystems Multiskan plate reader using Ascent software. ELISA titers are expressed as the reciprocal of the last dilution which gave a reading OD450>0.10.
The immunoreactivity of several synthetic peptides was determined by ELISA using rabbit sera prepared against whole M protein. The synthetic peptides are representative of relatively small portions of the M protein N-terminus; therefore, it was advantageous to determine if the epitopes contained within particular peptides were immunoreactive with sera prepared against whole M protein. It was shown that the whole anti-M protein rabbit sera of the respective serotypes could bind to each of the synthetic peptides within that serotype. However, some peptides were more highly immunoreactive than others, thus being better suited for use in the animal studies.

[2] = system: anti-M protein antibodies in mouse sera; test: ELISA of sera of mice immunized s.c. with peptide in alum (immunogenicity); assay type: in vivo, mice (Swiss Webster)
Description: as §1
(§2) Mice (6 week old female Swiss Webster, Harley-Sprague) were immunized subcutaneously (s.c.) with either the peptide in alum or alum alone for control groups. Peptides were rotated in the alum mixture for 2 hours at 4° C. and stored at 4° C. overnight prior to use.

streptococci (GAS) = test: Nasopharyngeal colonization challenge in vaccinated mice; assay type: in vivo; conditions: vaccinated mice relative to alum-only control mice; nasal wash 24 hours after 10^4 CFU challenge
Description: as §2
Mice were challenged intranasally one week after the final booster injection was administered. Prior to being challenged, mice were anesthetized with a ketamine/xylazine mixture. Mice were then given 10^4-10^5 CFU (10 μl) of streptococci intranasally via a microliter pipette. They were sacrificed 24 hours after the challenge and the nasopharyngeal passages were washed with approximately 100 μl physiological saline which was collected and immediately placed on ice. Dilutions of the wash were then plated on trypticase soy agar plates (5% sheep blood) and incubated at 37° C. for 18 hours to quantitate viable organisms. Nasopharyngeal colonization in immunized mice was compared to non-immunized controls. Statistical analysis of the NP data was accomplished using the t-test and rank sum test.
Nasopharyngeal (NP) colonization challenge experiments were performed on mice vaccinated (s.c.) with either M3-1 or M3-2 peptide in alum in comparison to control animals which received alum only. The nasopharyngeal colonization challenge was performed by doing a nasal wash 24 hours after challenge. […]

GAS M type M43 = test: Opsonophagocytosis / bactericidal activity in vitro, heterologous GAS M type M43; assay type: cell-based, Group A streptococci
Description: (§3) Opsonophagocytosis assays were performed as previously described in Lancefield, R. C., Persistence of type-specific antibodies in man following infection with group A streptococci, 1959, J. Immunol., 89:307. Briefly, diluted serum (50 μl) was added to mid-log phase GAS (10^3 CFU) in Todd-Hewitt broth (50 μl) and whole, heparinized blood (500 μl) from a nonopsonic human donor. Mixtures were briefly vortexed and placed at 37° C. in a shaker for 3 hours. Dilutions were then plated on trypticase soy agar plates (5% sheep blood) to quantitate viable organisms. The % killing is expressed as [(CFU control-CFU test)/CFU control]×100.
(§4) Some of the peptides tested in the previous examples were tested for cross-type protection using the methods described above. […] The peptide tested and serotype against which it was tested is indicated.

GAS = test: Opsonophagocytosis assay in vitro with sera of immunized mice; assay type: cell-based, Group A streptococci; conditions: human whole blood, 3 hours
Description: as §3
Each of the sera tested positive in the assay and was able to reduce the amount of viable bacteria relative to controls.

GAS M type M3 = test: Opsonophagocytosis / bactericidal activity in vitro, GAS M type M3; assay type: cell-based, Group A streptococci
Description: as §3, §4

## CAEKQRLEDLGQKFERLKQRS [Peptide M12-2]
[1]
  immunoreactivity by ELISA using rabbit sera prepared against whole M protein: confirmed
[2]
  ELISA (elicitation of antibodies): yes (weak)

## CDARSVNGEFPRHVKLKNEIE [Peptide M3-1]
Streptococci (GAS)
  Reduction of colonization: 87%
GAS M type M43; in vitro versus control
  reduction of M43 type bacteria: significantly reduce
GAS M type M43; in vitro, heterologous GAS M type M43
  % CFU reduction: 80-90%
GAS
  Opsono (in vitro): opsonophagocytize bacteria more effectively and yes
GAS M type M3; in vitro versus control
  reduction of M3 type bacteria: significantly reduce
GAS M type M3; in vitro, GAS M type M3
  % CFU reduction: 70-90%
[1]
  immunoreactivity by ELISA using rabbit sera prepared against whole M protein: confirmed
[2]
  ELISA (elicitation of antibodies): yes

## CIQNIRLRHENKDLKARLENA [Peptide M1-2]
[1]
  immunoreactivity by ELISA using rabbit sera prepared against whole M protein: confirmed
[2]
  ELISA (elicitation of antibodies): no

## CLDQVTQLYNKHNSNYQQYSA [Peptide M3-4]
[1]
  immunoreactivity by ELISA using rabbit sera prepared against whole M protein: confirmed
[2]
  ELISA (elicitation of antibodies): no

## CLDQVTQLYTKHNSNYQQYSA [Peptide M3-5]
[1]
  immunoreactivity by ELISA using rabbit sera prepared against whole M protein: confirmed

## CLEDLGQKFERLKQRSELYLQ [Peptide M12-3]
[1]
  immunoreactivity by ELISA using rabbit sera prepared against whole M protein: confirmed
[2]
  ELISA (elicitation of antibodies): no

## CLEEERGEHLDKIDELKEELK [Peptide M89-8]
[1]
  immunoreactivity by ELISA using rabbit sera prepared against whole M protein: confirmed

## CLNKLDKVEEEHKKDHEQLEK [Peptide M77-5]
[1]
  immunoreactivity by ELISA using rabbit sera prepared against whole M protein: confirmed

## CLNQVTQLHTKHNSNYQQYNA [Peptide M3-8]
[1]
  immunoreactivity by ELISA using rabbit sera prepared against whole M protein: confirmed

## CLNQVTQLYTKHNSNYQQYNA [Peptide M3-6]
[1]
  immunoreactivity by ELISA using rabbit sera prepared against whole M protein: confirmed

## CLRQKEENDKLKLEKKGLETE [Peptide M43-4]
[1]
  immunoreactivity by ELISA using rabbit sera prepared against whole M protein: confirmed

## CNDELRENYRRTLDKFNTEQ [Peptide M75-3]
[1]
  immunoreactivity by ELISA using rabbit sera prepared against whole M protein: confirmed

## CNENKSLRRERDNYLNYLYEK [Peptide M59-3]
[1]
  immunoreactivity by ELISA using rabbit sera prepared against whole M protein: confirmed

## CNGDGNPREVIEDLAANNPAIQ [Peptide M1-1]
[1]
  immunoreactivity by ELISA using rabbit sera prepared against whole M protein: confirmed

## CNGDGNPREVIEDLAANNPAME [Peptide M1-4]
[1]; rabbit sera against whole M protein of the respective serotype
  immunoreactivity of peptide with anti-M protein rabbit sera (ELISA): highest reactivity
[2]
  ELISA (elicitation of antibodies): no

## CNGDGNPREVIEDLAANNPVIQ [Peptide M1-6]
[1]
  immunoreactivity by ELISA using rabbit sera prepared against whole M protein: confirmed

## CNGDGNPRVVIEDLAANNPAIQ [Peptide M1-7]
[1]
  immunoreactivity by ELISA using rabbit sera prepared against whole M protein: confirmed

## CNHQLTVENKKLKTDKEQLTKE [Peptide M18-6]
[1]
  immunoreactivity by ELISA using rabbit sera prepared against whole M protein: confirmed

## CNSKNPAPAPASAVPVKKEATK [st2967-1]
[1]
  immunoreactivity by ELISA using rabbit sera prepared against whole M protein: confirmed

## CNSKNPAPAPAVPVKKEATKL [st2967-4]
[1]
  immunoreactivity by ELISA using rabbit sera prepared against whole M protein: confirmed

## CNSKNPAPAVPVKKEATKLSE [st2967-5]
[1]
  immunoreactivity by ELISA using rabbit sera prepared against whole M protein: confirmed

## CNSKNPVPVKKEAKLSEAELHDK [Peptide M2-1]
[1]
  immunoreactivity by ELISA using rabbit sera prepared against whole M protein: confirmed

## CNSMLQANNDKLTTENKNLTD [Peptide M6-5]
[1]
  immunoreactivity by ELISA using rabbit sera prepared against whole M protein: confirmed

## CNTLNTLTDENEKLREELQQ [Peptide M22-4]
[1]
  immunoreactivity by ELISA using rabbit sera prepared against whole M protein: confirmed

## CQAQEEALRDVLNNTPHNQLRD [Peptide M41-3]
[1]
  immunoreactivity by ELISA using rabbit sera prepared against whole M protein: confirmed

## CQELEEGKAELFDKLEKVEEE [Peptide M73-6]
[1]
  immunoreactivity by ELISA using rabbit sera prepared against whole M protein: confirmed

## CQHKNNALTSENESLRREKDR [Peptide M94-2]
[1]
  immunoreactivity by ELISA using rabbit sera prepared against whole M protein: confirmed

## CQLRDPYAGAFRRNNELEKIIQE [Peptide M41-5]
[1]
  immunoreactivity by ELISA using rabbit sera prepared against whole M protein: confirmed

## CQLYTKHIYTKHNSNYQQYNAQ [Peptide M3-10]
[1]
  immunoreactivity by ELISA using rabbit sera prepared against whole M protein: confirmed

## CQRAKAALDKYELENHDLKTKN [Peptide M5-4]
[1]
  immunoreactivity by ELISA using rabbit sera prepared against whole M protein: confirmed

## CRATADNKDELIKRANDYEIQ [Peptide M18-2]
[1]
  immunoreactivity by ELISA using rabbit sera prepared against whole M protein: confirmed

## CRATADNKDELIKRANGYEIQ [Peptide M18-4]
[1]
  immunoreactivity by ELISA using rabbit sera prepared against whole M protein: confirmed

## CRDITEAGVSKFWKSKFDAEQN [Peptide M82-2]
[1]
  immunoreactivity by ELISA using rabbit sera prepared against whole M protein: confirmed

## CRENYRRTLDKFNTEQGKTTR [Peptide M75-5]
[1]
  immunoreactivity by ELISA using rabbit sera prepared against whole M protein: confirmed

## CREVTNELTASMWKAQADSAK [Peptide M58-2]
[1]
  immunoreactivity by ELISA using rabbit sera prepared against whole M protein: confirmed

## CRGTVENPDKARELLNKYDVEN [Peptide M6-2]
[1]
  immunoreactivity by ELISA using rabbit sera prepared against whole M protein: confirmed

## CRLAQAQEEALRDVLNNTPHN [Peptide M41-2]
[1]
  immunoreactivity by ELISA using rabbit sera prepared against whole M protein: confirmed

## CRREEKDRYLYEKEELEKKNK [Peptide M94-4]
[1]
  immunoreactivity by ELISA using rabbit sera prepared against whole M protein: confirmed

## CRRERDNYLNYLYEKEELEKK [Peptide M59-4]
[1]
  immunoreactivity by ELISA using rabbit sera prepared against whole M protein: confirmed

## CRSDARSVNGEFPRHVKLKNE [Peptide M3-9]
[1]
  immunoreactivity by ELISA using rabbit sera prepared against whole M protein: confirmed

## CRSVSTNSGSVSTPYNNLLNE [Peptide M92-2]
[1]
  immunoreactivity by ELISA using rabbit sera prepared against whole M protein: confirmed

## CRVFPRGTVENPDKARELLNK [Peptide M6-1]
[1]
  immunoreactivity by ELISA using rabbit sera prepared against whole M protein: confirmed

## CRVPGTLWLRQKEENDKLKLEK [Peptide M43-3]
[1]
  immunoreactivity by ELISA using rabbit sera prepared against whole M protein: confirmed

## CSDASLHNRITDLEEEREKLLNK [Peptide M77-2]
[1]
  immunoreactivity by ELISA using rabbit sera prepared against whole M protein: confirmed

## CSELYLQQYYDNKSNGYKGDW [Peptide M12-7]
[1]
  immunoreactivity by ELISA using rabbit sera prepared against whole M protein: confirmed

## CSVKDNEKELHNKIADLEEER [Peptide M89-3]
[1]
  immunoreactivity by ELISA using rabbit sera prepared against whole M protein: confirmed

## CTEHEKLRDEYYTLIDAKEEE [Peptide M28-5]
[1]
  immunoreactivity by ELISA using rabbit sera prepared against whole M protein: confirmed

## CTEHEKLRDEYYTLIDAKLEEK [Peptide M28-4]
[1]
  immunoreactivity by ELISA using rabbit sera prepared against whole M protein: confirmed

## CTEVKAAGQSAPKGTNVSADL [Peptide M11-4]
[1]
  immunoreactivity by ELISA using rabbit sera prepared against whole M protein: confirmed

## CTQLYTKHNSNYQQYNAQAGR [Peptide M3-11]
[1]
  immunoreactivity by ELISA using rabbit sera prepared against whole M protein: confirmed

## CTVTRGTINDPQRAKEALDKYE [Peptide M5-1]
[1]
  immunoreactivity by ELISA using rabbit sera prepared against whole M protein: confirmed

## CTVTRGTINDPQRAKEVIDKYE [Peptide M5-7]
[1]
  immunoreactivity by ELISA using rabbit sera prepared against whole M protein: confirmed

## CTVTRGTVNDPQRAKEALDKYE [Peptide M5-5]
[1]
  immunoreactivity by ELISA using rabbit sera prepared against whole M protein: confirmed

## CTVTRGTVNDPQRAKETLDKYE [Peptide M5-6]
[1]
  immunoreactivity by ELISA using rabbit sera prepared against whole M protein: confirmed

## CTVTRSTINDPQRAKEALDKYE [Peptide M5-8]
[1]
  immunoreactivity by ELISA using rabbit sera prepared against whole M protein: confirmed

## CVPVKKEATKLSEAELYNKIQ [st2967-2]
[1]
  immunoreactivity by ELISA using rabbit sera prepared against whole M protein: confirmed
